According to patent US5965533A, “Atrial natriuretic peptide (ANP) as an additive to peritoneal dialysis solutions” (Baxter International Inc., priority 1997, dated 1999):

How the values were obtained:
sheep = test: ANP in 4.25% dextrose DIANEAL peritoneal dialysis solution in conscious sheep, 6 hour dwell; assay type: in vivo; details: mean, n = 5
Procedure: In a second experiment performed on sheep, ANP was added to a 4.25% dextrose DIANEAL® solution to provide a final concentration of ANP in the solution of […]. The dialysis solution was then infused into the peritoneal cavity of the sheep in 50 ml/kg BW volumes. The dwell time periods were 6 hours; the sheep remained conscious.
wherein pl. vol. is plasma volume; Vo is the volume of the peritoneal cavity before the commencement of the dialysis; V6 is the volume of the peritoneal cavity after six hours; LFR is lymph flow rate; Bl. rec. is blood recovery; and PC rec. is peritoneal cavity recovery.

rats = test: Intraperitoneally administered ANP in peritoneal dialysis solution, transport characteristics in rats, 4 hour dwell; assay type: in vivo, rat
Procedure: A first experiment was performed to assess the effect of intraperitoneal administered ANP on peritoneal dialysis transport characteristics in rats. In this study, a dose of 9 μg ANP/kg BW of rat was mixed in a base solution of 2.5% dextrose DIANEAL® solution. The rats were injected with 90 ml/kg BW of either the above solution with the ANP additive or an unaltered control DIANEAL® solution.
Blood samples were taken before and after the 4 hour dwell period. Dialysate samples were collected at the start of the dwell and every 2 hours thereafter. All samples were analyzed for urea nitrogen (UN), sodium (Na), glucose, protein (prtn), and osmolality (Osm). At the end of the 4 hour dwell period, the rats were sacrificed, the abdominal walls excised, and the effluents collected and weighed.
To prepare the above ANP solution, 250 cc of DIANEAL® PD-2 solution was transferred into a 250 ml empty bag (VIAFLEX®). 10 cc of DIANEAL® PD-2 solution was injected into a vial containing […] of ANF (atrial natriuretic factor--yANF,rat,28AA sold by Peninsula Laboratories, Inc.). 1.25 cc of the DIANEAL®/ANF solution was then withdrawn with a needle and syringe and injected into the 250 ml bag containing the DIANEAL® base solution through a 0.22 μm sterile filter. The bag was then enclosed with a sampling site coupler. The control solution was similarly transferred into a new 250 ml bag (VIAFLEX®) and enclosed with a sampling site coupler.

[1] = ANP 1×10^31 7 M in 4.25% dextrose DIANEAL
[2] = ANP as additive versus control DIANEAL solution, Table 1 and FIGS. 1 and 2
[3] = rat, protein, 9 μg ANP/kg BW, 4 hour, mean ± SD
[4] = rat, urea nitrogen, 9 μg ANP/kg BW, 4 hour, mean ± SD

## atrial natriuretic peptide [ANP]
sheep; [1]
  Fl. loss: 13.39 mL/kg
  LFR (lymph flow rate): 6.45 mL/kg
  NUF (net ultra filtration): 22.05 mL/kg
  PC rec. (peritoneal cavity recovery): 82.12%
  Total rec.: 93.81%
  V6 (volume of the peritoneal cavity after six hours): 0.07246 L/kg
sheep; ANP in 4.25% dextrose DIANEAL, 50 ml/kg BW
  pl. vol. (plasma volume): 52.70 mL/kg
sheep; ANP in 4.25% dextrose DIANEAL
  Bl. rec. (blood recovery): 11.69%
rats; [2]
  effect on net ultrafiltration (in words): increases
  effect on sodium clearance (in words): increases
rats; rat, 9 μg ANP/kg BW in 2.5% dextrose DIANEAL, 90 ml/kg BW i.p., 4 hour dwell, mean ± SD
  nUF (net ultrafiltration): 8.17 ± 0.52 mL
rats; rat, 9 μg ANP/kg BW in 2.5% dextrose DIANEAL, 4 hour sample, mean ± SD
  Osm (osmolality): 308.0 ± 3.5 mOsm/kg
rats; rat, glucose, 9 μg ANP/kg BW, 4 hour, mean ± SD
  D/D0 (glucose): 0.363 ± 0.024
rats; [3]
  Clearance (prtn): 1.379 ± 0.117 µL/min
  D/P (prtn): 0.0106 ± 0.0009
rats; rat, sodium, 9 μg ANP/kg BW, 4 hour, mean ± SD
  Clearance (Na): 0.1110 ± 0.0027 mL/min
rats; [4]
  Clearance (UN): 0.106 ± 0.005 mL/min
  D/P (UN): 0.81 ± 0.04
